# Source: US20120142771A1, “BIPHENYLACETAMIDE DERIVATIVE” (Dainippon Sumitomo Pharma Co., Ltd., priority 2008, published 2012)
# Key:
# [1] = tested on: maximum electroshock seizure (MES) model; test: Maximum electroshock seizure (MES) model test; format: in vivo, mice; conditions: for responders at 50 mg/kg / responders at 100 mg/kg: Mus musculus, po, 1 h, Slc: ddY male mice, 3 per group, electrical stimulation 1 hour after administration, inhibition of hind limb extension, read-out: MES (positive number/tested number) (converted); for responders at 50 mg/kg: 50 mg/kg oral; for responders at 100 mg/kg: 100 mg/kg oral; for anticonvulsant action in maximum electroshock seizure (MES) model test: mice, oral 50 or 100 mg/kg, 1 hour after administration
# From the text: In order to evaluate the antiepileptic activity of each drug, maximum electroshock seizure (MES) model, subcutaneously pentetrazol-injected model (scPTZ), and amygdala kindling model in rats were used because they show a good clinical prediction.
# Test 1: Test with Maximum Electroshock Seizure (MES) Model
# Test 1 evaluates the anticonvulsant action of medicaments. Animal model used herein represents the clinical phenotypes of generalized tonic seizure and secondarily generalized tonic-clonic seizure. Test compounds (50 or 100 mg/kg) were orally administered to Slc: ddY male mice (3 mice in each group, body weight 20-30 g). After an hour of administration, their corneas were electrically stimulated (60 Hz, 25 mA, 0.2 second) to induce tonic convulsion (tonic extensor in their hind limbs). […] To the control mice, 0.5% tragacanth solution or 0.5% methylcellulose solution was administered.
# [2] = tested on: subcutaneously pentetrazol-injected model (scPTZ); test: Subcutaneously pentetrazol-injected model (scPTZ) test; format: in vivo, mice; conditions: pentetrazol 85 mg/kg s.c. after 1 hour; for responders at 100 mg/kg / responders at 50 mg/kg: Mus musculus, po, 1 h, Slc: ddY male mice, 3 per group, observed 30 minutes for clonic convulsion, read-out: scPTZ (positive number/tested number) (converted); for responders at 100 mg/kg: 100 mg/kg oral; for responders at 50 mg/kg: 50 mg/kg oral; for anticonvulsant action in subcutaneously pentetrazol-injected model (scPTZ) test: mice, oral 50 or 100 mg/kg
# From the text: In order to evaluate the antiepileptic activity of each drug, maximum electroshock seizure (MES) model, subcutaneously pentetrazol-injected model (scPTZ), and amygdala kindling model in rats were used because they show a good clinical prediction. […] Test with Subcutaneously Pentetrazol-Injected Model (scPTZ) Similar to Test 1, Test 2 evaluates the anticonvulsant action of medicaments. However, unlike Test 1, animal model used herein represents the clinical phenotypes of generalized absence seizure and myoclonic seizure. Test compounds (50 or 100 mg/kg) were orally administered to Slc: ddY male mice (3 mice in each group, body weight 20-30 g). After an hour, pentetrazol (85 mg/kg) was subcutaneously administered. […] To the control mice, 0.5% tragacanth solution or 0.5% methylcellulose solution was administered.
Compound,responders at 50 mg/kg [1],responders at 100 mg/kg [1],responders at 100 mg/kg [2],responders at 50 mg/kg [2],anticonvulsant action in maximum electroshock seizure (MES) model test [1],anticonvulsant action in subcutaneously pentetrazol-injected model (scPTZ) test [2]
NC(=O)Cc1cc(Cl)ccc1-c1ccccc1 [Example 35],0%,66.7%,0%,,,
CNC(=O)Cc1cc(Cl)ccc1-c1ccccc1 [Example 36],0%,100%,33.3%,,,
CCNC(=O)Cc1cc(Cl)ccc1-c1ccccc1 [Example 37],,0%,33.3%,,,
CN(C)C(=O)Cc1cc(Cl)ccc1-c1ccccc1F [Example 38],,0%,100%,0%,,
CNC(=O)Cc1ccc(F)cc1-c1ccccc1 [Example 40],33.3%,100%,0%,,,
CNC(=O)Cc1ccc(F)cc1-c1ccccc1F [Example 42],,33.3%,66.7%,33.3%,,
NC(=O)Cc1ccc(F)cc1-c1cccc(Cl)c1 [Example 43],66.7%,66.7%,66.7%,33.3%,,
"NC(=O)Cc1cc(F)ccc1-c1ccccc1 [Example 44, 2-(4-fluorobiphenyl-2-yl)acetamide]",100%,100%,0%,,,
"CNC(=O)Cc1cc(F)ccc1-c1ccccc1 [Example 45, 2-(4-fluorobiphenyl-2-yl)-N-methylacetamide]",100%,100%,0%,,,
"CNC(=O)Cc1cc(F)ccc1-c1ccccc1F [Example 47, 2-(2′,4-difluorobiphenyl-2-yl)-N-methylacetamide]",100%,100%,0%,,,
"NC(=O)Cc1cc(F)ccc1-c1cccc(Cl)c1 [Example 48, 2-(3′-chloro-4-fluorobiphenyl-2-yl)acetamide]",33.3%,100%,100%,33.3%,,
"NC(=O)Cc1ccccc1-c1ccc(Br)cc1 [Example 49, 2-(4′-Bromobiphenyl-2-yl)acetamide]",0%,66.7%,66.7%,0%,,
NC(=O)Cc1ccccc1-c1ccc(C(F)(F)F)cc1 [Example 51],0%,100%,33.3%,,,
"CNC(=O)Cc1ccccc1-c1ccc(Br)cc1 [Example 53, 2-(4′-Bromobiphenyl-2-yl)-N-methylacetamide]",66.7%,100%,0%,,,
"CNC(=O)Cc1ccccc1-c1ccccc1 [Example 54, 2-(biphenyl-2-yl)-N-methylacetamide]",100%,100%,33.3%,,,
CNC(=O)Cc1ccccc1-c1cccc(Br)c1 [Example 55],0%,100%,0%,,,
"CC(C(N)=O)c1ccccc1-c1ccccc1 (stereo not drawn) [Example 56, 2-(Biphenyl-2-yl)propanamide]",0%,100%,66.7%,100%,,

Compound,responders at 50 mg/kg [1],responders at 100 mg/kg [1],responders at 100 mg/kg [2],responders at 50 mg/kg [2],anticonvulsant action in maximum electroshock seizure (MES) model test [1],anticonvulsant action in subcutaneously pentetrazol-injected model (scPTZ) test [2]
"CNC(=O)C(C)c1ccccc1-c1ccccc1 (stereo not drawn) [Example 57, 2-(biphenyl-2-yl)-N-methyl propanamide]",66.7%,66.7%,66.7%,66.7%,anticonvulsant action was observed,anticonvulsant action was observed
"CNC(=O)C(C)c1ccccc1-c1ccccc1F (stereo not drawn) [Example 58, 2-(2′-fluorobiphenyl-2-yl)-N-methyl propanamide]",0%,66.7%,66.7%,0%,,
"COC(C(N)=O)c1ccccc1-c1ccccc1 (stereo not drawn) [Example 61, 2-(Biphenyl-2-yl)-2-methoxyacetamide]",0%,66.7%,100%,0%,,
"CNC(=O)C(OC)c1ccccc1-c1ccccc1 (stereo not drawn) [Example 62, 2-(biphenyl-2-yl)-2-methoxy-N-methylacetamide]",66.7%,100%,33.3%,,,
"COC(C(=O)N(C)C)c1ccccc1-c1ccccc1 (stereo not drawn) [Example 63, 2-(biphenyl-2-yl)-2-methoxy-N,N-dimethylacetamide]",0%,66.7%,66.7%,33.3%,,
NC(=O)Cc1ccccc1-c1ccc(F)c(Cl)c1 [Example 65],,66.7%,33.3%,,,
NC(=O)Cc1ccccc1-c1ccc(Cl)c(F)c1 [Example 66],,66.7%,33.3%,,,
"NC(=O)Cc1ccccc1-c1cc(F)cc(F)c1F [Example 67, 2-(2′,3′,5′-trifluorobiphenyl-2-yl)acetamide]",66.7%,66.7%,66.7%,66.7%,anticonvulsant action was observed,anticonvulsant action was observed
"NC(=O)Cc1ccccc1-c1ccc(Cl)cc1F [Example 68, 2-(4′-chloro-2′-fluorobiphenyl-2-yl)acetamide]",0%,100%,66.7%,0%,,
NC(=O)Cc1ccccc1-c1cc(F)c(F)cc1F [Example 69],,33.3%,66.7%,,,
"NC(=O)Cc1ccccc1-c1ccc(OC(F)(F)F)c(F)c1 [Example 70, 2-[3′-fluoro-4′-(trifluoromethoxy)biphenyl-2-yl]acetamide]",33.3%,100%,66.7%,66.7%,,
NC(=O)Cc1ccccc1-c1cc(C(F)(F)F)cc(C(F)(F)F)c1 [Example 72],,66.7%,0%,,,
"NC(=O)Cc1ccccc1-c1cc(F)cc(C(F)(F)F)c1 [Example 73, 2-[3′-fluoro-5′-(trifluoromethyl)biphenyl-2-yl]acetamide]",33.3%,100%,100%,0%,,
NC(=O)Cc1ccccc1-c1ccc(C(F)(F)F)cc1C(F)(F)F [Example 74],,66.7%,33.3%,,,
"NC(=O)Cc1ccccc1-c1ccc(Cl)c(C(F)(F)F)c1 [Example 75, 2-[4′-chloro-3′-(trifluoromethyl)biphenyl-2-yl]acetamide]",0%,100%,66.7%,33.3%,,
"NC(=O)Cc1ccccc1-c1ccc(OC(F)(F)F)cc1 [Example 76, 2-[4′-(trifluoromethoxy)biphenyl-2-yl]acetamide]",0%,100%,66.7%,33.3%,,
